Reference: article PMC10402865, “Fragment-based design, synthesis and biological evaluation of theophylline derivatives as ATAD2 inhibitors in BT-549 cells” (Journal of Enzyme Inhibition and Medicinal Chemistry, 2023)

Key:
[1] = target: T1, ATAD2 recombinant bromodomain protein (Homo sapiens, UniProt Q6PL18); assay: ATAD2 enzymatic assay by TR-FRET technology; type: binding; settings: TR-FRET; for IC50: mean ± SD, read-out: Kinase inhibitory activity (IC50, μM) ATAD2
T1 sequence (Q6PL18 980-1092 limits assumed): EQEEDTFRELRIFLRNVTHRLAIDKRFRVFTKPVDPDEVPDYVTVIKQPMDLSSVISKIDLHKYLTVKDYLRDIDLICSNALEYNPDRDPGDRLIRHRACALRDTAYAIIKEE
Procedure: The assay was performed by TR-FRET technology using recombinant bromodomain and BET Ligand[8]. The compounds were diluted with indicated folds in 5% DMSO in reaction buffer and 2 µl of the dilution was added to a 20 µl reaction so that the final concentration of DMSO is 0.5% in all of the reactions. The 20 µl reaction mixture consists of the ATAD2 recombinant bromodomain protein, the indicated amount of the inhibitor, ligand, and the reactive dyes. The reaction mixture was incubated for 3 h before reading the TR-FRET signal. Fluorescence signals for both the donor and acceptor dyes were measured using a Tecan Infinite M1000 plate reader. Binding experiments were performed in duplicate at each concentration and the data were analysed using GraphPad Prism.

BT-549 cells = assay: Cell viability (MTT) assay, anti-proliferative activity; type: cell-based; settings: Homo sapiens, MTT, 24 h, mean ± SD
Procedure: BT-549 cells were seeded at a density of 5 × 10^4 cells/ml in a 96-well plate. Following a 24-h incubation period, the cells were exposed to various concentrations of different compounds for the specified durations. Cell viability was evaluated using an MTT assay.

In the case of Cn1c(=O)c2ncn(CC(=O)Nc3cccc(C(=O)NC4CC4)c3)c2n(C)c1=O [Compound 19a, N-cyclopropyl-3–(2-(1,3-dimethyl-2,6-dioxo-1,2,3,6-tetrahydro-9H-purin-9-yl)acetamido)benzamide], the IC50 [1] is reported as 13.8 ± 2.57 µM, the IC50 (BT-549 cells) is reported as greater than 30 µM and the melting point is reported as 222 to 224 °C.
Molecule COc1ccc(C(=O)NC2CCCCC2)cc1NC(=O)Cn1cnc2c(=O)n(C)c(=O)n(C)c21 [Compound 19i, N-cyclohexyl-3–(2-(1,3-dimethyl-2,6-dioxo-1,2,3,6-tetrahydro-9H-purin-9-yl)acetamido)-4-methoxybenzamide] has an IC50 [1] of 12.3 ± 3.06 µM, an IC50 (BT-549 cells) of 22 ± 3.35 µM and a melting point of 185 to 187 °C.
COc1ccc(C(=O)N2CCOCC2)cc1NC(=O)Cn1cnc2c(=O)n(C)c(=O)n(C)c21 [Compound 15i, 2–(1,3-dimethyl-2,6-dioxo-1,2,3,6-tetrahydro-9H-purin-9-yl)-N-(2-methoxy-5-(morpholine-4-carbonyl)phenyl)acetamide] gave an IC50 [1] of 11.3 ± 2.79 µM, an IC50 (BT-549 cells) of 28 ± 3.61 µM and a melting point of 278 to 279 °C.
For Cn1c(=O)c2ncn(CC(=O)Nc3cccc(C(=O)N4CCSCC4)c3)c2n(C)c1=O [Compound 15a, 2–(1,3-dimethyl-2,6-dioxo-1,2,3,6-tetrahydro-9H-purin-9-yl)-N-(3-(thiomorpholine-4-carbonyl)phenyl)acetamide], the “ATAD2 inhibitory activity, in words” value [1] was “without ATAD2 inhibition activity”, the IC50 [1] was greater than 25 µM and the IC50 (BT-549 cells) was greater than 30 µM. The melting point was 246 to 248 °C.
Cc1cc2c(cc1N)n(C)c(=O)n2C [TS-1] showed an IC50 [1] of 411 µM.
Cn1c(=O)c2ncn(CC(=O)Nc3cccc(C(=O)NC4CCCC4)c3)c2n(C)c1=O [Compound 19d, N-cyclopentyl-3–(2-(1,3-dimethyl-2,6-dioxo-1,2,3,6-tetrahydro-9H-purin-9-yl)acetamido)benzamide] showed an IC50 [1] of 5.13 ± 0.72 µM, an IC50 (BT-549 cells) of 17.9 ± 3.54 µM and a melting point of 207 to 208 °C.
Cn1c(=O)c2ncn(CC(=O)Nc3cc(C(=O)N4CCOCC4)ccc3Cl)c2n(C)c1=O [Compound 15j, N-(2-chloro-5-(morpholine-4-carbonyl)phenyl)-2–(1,3-dimethyl-2,6-dioxo-1,2,3,6-tetrahydro-9H-purin-9-yl)acetamide] gave an IC50 [1] of 15.2 ± 3.63 µM, an IC50 (BT-549 cells) of 26.1 ± 3.77 µM and a melting point of 262 to 264 °C.
Cc1ccc(C(=O)NC2CCCCC2)cc1NC(=O)Cn1cnc2c(=O)n(C)c(=O)n(C)c21 [Compound 19h, N-cyclohexyl-3–(2-(1,3-dimethyl-2,6-dioxo-1,2,3,6-tetrahydro-9H-purin-9-yl)acetamido)-4-methylbenzamide] gave an IC50 [1] of 19.7 ± 4.38 µM, an IC50 (BT-549 cells) of 11.7 ± 2.46 µM and a melting point of 199 to 201 °C.
In the case of Cc1ccc(C(=O)N2CCOCC2)cc1NC(=O)Cn1cnc2c(=O)n(C)c(=O)n(C)c21 [Compound 15h, 2–(1,3-dimethyl-2,6-dioxo-1,2,3,6-tetrahydro-9H-purin-9-yl)-N-(2-methyl-5-(morpholine-4-carbonyl)phenyl)acetamide], the IC50 [1] is reported as greater than 25 µM, the IC50 (BT-549 cells) is reported as greater than 30 µM and the melting point is reported as 270 to 271 °C.
In the case of Cn1c(=O)c2[nH]cnc2n(C)c1=O [TS-2, theophylline], the IC50 [1] is reported as 324 µM.
In the case of Cc1ccc(C(=O)NC2CCCCCC2)cc1NC(=O)Cn1cnc2c(=O)n(C)c(=O)n(C)c21 [Compound 19k, N-cycloheptyl-3–(2-(1,3-dimethyl-2,6-dioxo-1,2,3,6-tetrahydro-9H-purin-9-yl)acetamido)-4-methylbenzamide], the IC50 [1] is reported as greater than 25 µM, the IC50 (BT-549 cells) is reported as greater than 30 µM and the melting point is reported as 194 to 196 °C.
With COc1ccc(C(=O)N2CCS(=O)(=O)CC2)cc1NC(=O)Cn1cnc2c(=O)n(C)c(=O)n(C)c21 [Compound 15f, 2–(1,3-dimethyl-2,6-dioxo-1,2,3,6-tetrahydro-9H-purin-9-yl)-N-(5–(1,1-dioxidothiomorpholine-4-carbonyl)-2-methoxyphenyl)acetamide] the IC50 [1] was greater than 25 µM and the IC50 (BT-549 cells) was greater than 30 µM.
